MIC data for six compounds are collected here from ChEMBL document CHEMBL4118281, “Azoalkyl ether imidazo[2,1-b]benzothiazoles as potentially antimicrobial agents with novel structural skeleton” (2018).

Structures are written as SMILES. Converted amounts (≈) assume the structure as drawn.

One assay deals with Bacillus. The assay can be described thus: Antibacterial activity against Bacillus proteus ATCC 13315 after 24 hrs by micro broth dilution method. Conditions: ATCC 13315, 24 h. The format is functional. (In general: In broth dilution the organism is exposed to a series of concentrations in liquid medium.)
The next assay deals with Candida albicans. The assay can be described thus: Antifungal activity against Candida albicans after 24 hrs by two fold serial dilution based spectrophotometric analysis. The format is functional.
For another assay, the system named is Micrococcus luteus. Kind of assay: Antibacterial activity against Micrococcus luteus ATCC 4698 after 24 hrs by micro broth dilution method. The assay is classed as functional. Conditions: NCTC 2665, 24 h.
In another assay the test system is Bacillus subtilis. The assay can be described thus: Antibacterial activity against Bacillus subtilis after 24 hrs by micro broth dilution method. The format is functional.
The test system of assay [1] is Escherichia coli. The assay can be described thus: Antibacterial activity against Escherichia coli JM109 after 24 hrs by micro broth dilution method. The assay is classed as functional. Particulars: JM109, 24 h.
Assay [2] deals with Escherichia coli. Kind of assay: Antibacterial activity against Escherichia coli DH52 after 24 hrs by micro broth dilution method. Conditions: DH52, 24 h. The format is functional.
In another assay the test system is Pseudomonas aeruginosa. The assay can be described thus: Antibacterial activity against Pseudomonas aeruginosa after 24 hrs by micro broth dilution method. The assay is classed as functional.
The test system of assay [3] is Staphylococcus aureus. Kind of assay: Antibacterial activity against methicillin-resistant Staphylococcus aureus N315 after 24 hrs by micro broth dilution method. The format is functional. Particulars: N315, 24 h.
The test system of another assay is Salmonella typhi. The assay can be described thus: Antibacterial activity against Bacillus typhi after 24 hrs by micro broth dilution method. The format is functional, Salmonella enterica subsp. enterica serovar Typhi. Particulars: Salmonella enterica.
In another assay the test system is Cyberlindnera jadinii. Kind of assay: Antifungal activity against Candida utilis after 24 hrs by two fold serial dilution based spectrophotometric analysis. The format is functional. Particulars: Williopsis jadinii.
The subject of assay [4] is Staphylococcus aureus. The assay can be described thus: Antibacterial activity against Staphylococcus aureus ATCC 25923 after 24 hrs by micro broth dilution method. The assay is classed as functional. Particulars: ATCC 25923, 24 h.
In a further assay the test system is Shigella dysenteriae. Kind of assay: Antibacterial activity against Shigella dysenteriae after 24 hrs by micro broth dilution method. The assay is classed as functional.
In the next assay the test system is Pichia norvegensis. The assay can be described thus: Antifungal activity against Candida mycoderma after 24 hrs by two fold serial dilution based spectrophotometric analysis. The assay is classed as functional.
The next assay relates to Saccharomyces cerevisiae. Kind of assay: Antifungal activity against Beer yeast after 24 hrs by two fold serial dilution based spectrophotometric analysis. The format is functional.
The next assay has as its system Aspergillus flavus. Kind of assay: Antifungal activity against Aspergillus flavus after 24 hrs by two fold serial dilution based spectrophotometric analysis. The assay is classed as functional.

Turning to `c1ccc(-c2nc3sc4ccccc4n3c2COCCCCCCCCCCn2cncn2)cc1`, the MIC worked out at 128 µg/mL (≈ 262 µM) in the assay on Bacillus; 16 µg/mL (≈ 32.8 µM) against Candida albicans; 64 µg/mL (≈ 131 µM) in the assay with Micrococcus luteus; 16 µg/mL (≈ 32.8 µM) with Bacillus subtilis; 64 µg/mL (≈ 131 µM) in the assay on Escherichia coli [1]; 32 µg/mL (≈ 65.6 µM) against Escherichia coli [2]. Also, the MIC in the assay on Pseudomonas aeruginosa was 32 µg/mL (≈ 65.6 µM); against Staphylococcus aureus [3], 16 µg/mL (≈ 32.8 µM); against Salmonella typhi it was 16 µg/mL (≈ 32.8 µM); with Cyberlindnera jadinii it was more than 512 µg/mL; with Staphylococcus aureus [4] it was 32 µg/mL (≈ 65.6 µM); against Shigella dysenteriae, 16 µg/mL (≈ 32.8 µM). The MIC against Pichia norvegensis, against Saccharomyces cerevisiae and in the assay on Aspergillus flavus was 16 µg/mL (≈ 32.8 µM) in each case.
Turning to `O=[N+]([O-])c1cn(CCCCCCCCCCOCc2c(-c3ccccc3)nc3sc4ccccc4n23)cn1`, the MIC against Bacillus was 32 µg/mL (≈ 60.2 µM); against Candida albicans it was 64 µg/mL (≈ 120 µM); against Micrococcus luteus, 128 µg/mL (≈ 241 µM); against Bacillus subtilis, 64 µg/mL (≈ 120 µM); against Escherichia coli [1], 64 µg/mL (≈ 120 µM); against Escherichia coli [2], 16 µg/mL (≈ 30.1 µM). Besides, the MIC against Pseudomonas aeruginosa was found to be 64 µg/mL (≈ 120 µM); against Staphylococcus aureus [3], 16 µg/mL (≈ 30.1 µM); in the assay on Salmonella typhi, 64 µg/mL (≈ 120 µM); in the assay with Cyberlindnera jadinii it was 256 µg/mL (≈ 481 µM); with Staphylococcus aureus [4], 32 µg/mL (≈ 60.2 µM); in the assay on Shigella dysenteriae, 16 µg/mL (≈ 30.1 µM). Besides, the MIC in the assay on Pichia norvegensis came out at 64 µg/mL (≈ 120 µM); against Saccharomyces cerevisiae, 8 µg/mL (≈ 15 µM); with Aspergillus flavus it was 128 µg/mL (≈ 241 µM).
For `c1ccc(-c2nc3sc4ccccc4n3c2COCCCCCn2cncn2)cc1`, the MIC turned out to be 32 µg/mL (≈ 76.6 µM) in the assay on Bacillus; 4 µg/mL (≈ 9.58 µM) against Candida albicans; 256 µg/mL (≈ 613 µM) against Micrococcus luteus; 32 µg/mL (≈ 76.6 µM) in the assay with Bacillus subtilis; 16 µg/mL (≈ 38.3 µM) against Escherichia coli [1]; 32 µg/mL (≈ 76.6 µM) with Escherichia coli [2]. The MIC against Pseudomonas aeruginosa was 32 µg/mL (≈ 76.6 µM); against Staphylococcus aureus [3], 16 µg/mL (≈ 38.3 µM); against Salmonella typhi, 32 µg/mL (≈ 76.6 µM); in the assay on Cyberlindnera jadinii, 64 µg/mL (≈ 153 µM); in the assay on Staphylococcus aureus [4], 16 µg/mL (≈ 38.3 µM); in the assay on Shigella dysenteriae, 8 µg/mL (≈ 19.2 µM). The MIC against Pichia norvegensis came to 8 µg/mL (≈ 19.2 µM); against Saccharomyces cerevisiae it was 8 µg/mL (≈ 19.2 µM); in the assay on Aspergillus flavus, 16 µg/mL (≈ 38.3 µM).
Consider `O=[N+]([O-])c1cn(CCCCCOCc2c(-c3ccccc3)nc3sc4ccccc4n23)cn1`, for which the MIC in the assay on Bacillus stood at 64 µg/mL (≈ 139 µM); in the assay on Candida albicans, 16 µg/mL (≈ 34.7 µM); with Micrococcus luteus it was 256 µg/mL (≈ 555 µM); against Bacillus subtilis it was 128 µg/mL (≈ 277 µM); in the assay with Escherichia coli [1], 128 µg/mL (≈ 277 µM); against Escherichia coli [2] it was 128 µg/mL (≈ 277 µM). Moreover, the MIC is 512 µg/mL (≈ 1110 µM) in the assay on Pseudomonas aeruginosa; 8 µg/mL (≈ 17.3 µM) in the assay with Staphylococcus aureus [3]; 128 µg/mL (≈ 277 µM) in the assay on Salmonella typhi; more than 512 µg/mL with Cyberlindnera jadinii; 32 µg/mL (≈ 69.3 µM) against Staphylococcus aureus [4]; 128 µg/mL (≈ 277 µM) against Shigella dysenteriae. Further, the MIC amounted to 16 µg/mL (≈ 34.7 µM) against Pichia norvegensis, 32 µg/mL (≈ 69.3 µM) against Saccharomyces cerevisiae and 64 µg/mL (≈ 139 µM) in the assay on Aspergillus flavus.
For `Cc1ncc([N+](=O)[O-])n1CCCCCCCCCCOCc1c(-c2ccccc2)nc2sc3ccccc3n12`, the MIC amounted to 16 µg/mL (≈ 29.3 µM) with Bacillus; 8 µg/mL (≈ 14.7 µM) against Candida albicans; 256 µg/mL (≈ 469 µM) in the assay with Micrococcus luteus; 16 µg/mL (≈ 29.3 µM) against Bacillus subtilis; 8 µg/mL (≈ 14.7 µM) in the assay with Escherichia coli [1]; 16 µg/mL (≈ 29.3 µM) in the assay with Escherichia coli [2]. Further, the MIC against Pseudomonas aeruginosa is 16 µg/mL (≈ 29.3 µM); against Staphylococcus aureus [3], 16 µg/mL (≈ 29.3 µM); in the assay with Salmonella typhi, 64 µg/mL (≈ 117 µM); against Cyberlindnera jadinii, 128 µg/mL (≈ 235 µM); in the assay on Staphylococcus aureus [4], 16 µg/mL (≈ 29.3 µM); in the assay on Shigella dysenteriae it was 32 µg/mL (≈ 58.6 µM). The MIC is 64 µg/mL (≈ 117 µM) with Pichia norvegensis, 256 µg/mL (≈ 469 µM) against Saccharomyces cerevisiae and 16 µg/mL (≈ 29.3 µM) against Aspergillus flavus.
With `BrCCCCCOCc1c(-c2ccccc2)nc2sc3ccccc3n12`, the MIC with Bacillus came out at 16 µg/mL (≈ 37.3 µM); with Candida albicans, 4 µg/mL (≈ 9.32 µM); with Micrococcus luteus it was 256 µg/mL (≈ 596 µM); against Bacillus subtilis, 4 µg/mL (≈ 9.32 µM); in the assay with Escherichia coli [1], 16 µg/mL (≈ 37.3 µM); in the assay with Escherichia coli [2] it was 16 µg/mL (≈ 37.3 µM). Further, the MIC is 16 µg/mL (≈ 37.3 µM) in the assay with Pseudomonas aeruginosa; 16 µg/mL (≈ 37.3 µM) in the assay on Staphylococcus aureus [3]; 128 µg/mL (≈ 298 µM) with Salmonella typhi; 64 µg/mL (≈ 149 µM) in the assay on Cyberlindnera jadinii; 32 µg/mL (≈ 74.5 µM) against Staphylococcus aureus [4]; 16 µg/mL (≈ 37.3 µM) in the assay on Shigella dysenteriae. Moreover, the MIC amounted to 64 µg/mL (≈ 149 µM) in the assay on Pichia norvegensis, 16 µg/mL (≈ 37.3 µM) with Saccharomyces cerevisiae and 16 µg/mL (≈ 37.3 µM) in the assay on Aspergillus flavus.

A word on the MIC: it is the least concentration at which growth counts as inhibited. A higher MIC goes with a less susceptible organism.
